The values below come from patent US4237135A, “2-(4-Ethyl-1-piperazinyl)-4-phenylquinoline, process for preparation thereof, and composition thereof” (Dainippon Pharmaceutical Co., Ltd., priority 1978, dated 1980).

Like-named read-outs stand apart in the source and are kept apart here.

The subject of test [1] is hypothermia induced by reserpine. The test is described as follows: Anti-reserpine activity: antagonistic effect on hypothermia induced by reserpine. The note with it: p.o.; for ED50: Mus musculus, po, 4 h, reserpine 5 mg/kg i.p. It is filed as in vivo, male STD-ddY strain mice. How it is done: Pharmacological experiments have been done on the compound of the present invention, some known and novel analogous compounds and an antidepressant on the market, as mentioned below. In the experiments, ED50 was calculated by Litchfield-Wilcoxon method. This effect was examined according to the method of […]. 2, 725 (1963)], using male STD-ddY strain mice weighing 20-25 g. […] Rectal temperature of each mouse was measured 4 hours later with a thermister (Shibaura Electric, BMG III-130).

The test system of test [2] is brain 5-hydroxyindoleacetic acid (5-HIAA). The test is described as follows: Effect on brain monoamine metabolites: 5-HIAA. The format is in vivo, male Wistar strain rats. The note with it: 100 mg/kg p.o.; for Brain 5-HIAA, % of control: *P<0.01. How it is done:
Each test compound was given orally to the rats in a dose of 100 mg/kg and, 1, 3 and 6 hours later the rats were sacrificed. […] The concentrations of the monoamine metabolites were calculated in terms of ng/g wet brain tissue and expressed as % of the concentrations of controls receiving saline.

Test [3] concerns mouse-killing behavior of olfactory bulb-ablated rats. The test is described as follows: Suppressing effect on mouse-killing behavior in olfactory bulb-ablated rats. The format is in vivo, male Wistar strain rats. As to the method: Pharmacological experiments have been done on the compound of the present invention, some known and novel analogous compounds and an antidepressant on the market, as mentioned below. In the experiments, ED50 was calculated by Litchfield-Wilcoxon method.
Male Wistar strain rats, weighing 240-260 g, which had developed mouse-killing behavior after ablation of the olfactory bulb according to the method of Z. P. Horovitz [Int. J. Neuropharmacol. 5, 405 (1966)], were used in groups of 15 animals each. Each test compound was given intraperitoneally to the rats in 6 different doses, and 1 hours later the rats were each tested as to whether they killed a mouse or not. ED50 was calculated for each compound.

As for `CCN1CCN(c2cc(-c3ccccc3)c3ccccc3n2)CC1.Cl.Cl` [A, 2-(4-Ethyl-1-piperazinyl)-4-phenylquinoline dihydrochloride], the ED50 in test [1] (Table 1, read-out: Anti-reserpine activity ED50, hypothermia) worked out at 5.8 mg/kg; in test [1] (Table 2, read-out: Anti-reserpine ED50, hypothermia), 5.8 mg/kg; in test [3] (Rattus norvegicus, ip, 1 hour after dosing, read-out: Suppressing effect on mouse-killing behavior of olfactory bulb-ablated rats, ED50), 5 mg/kg. Further, the “Potency in antagonizing reserpine hypothermia relative to imipramine” value in test [1] (versus imipramine) stood at 3.7 times more powerful. Further, the “Brain 5-HIAA concentration / serotonin turnover (in words)” value in test [2] is given as “does not affect brain 5-HIAA concentration”. For the same compound, the “Brain 5-HIAA, % of control” value in test [2] (1 hour) is recorded as 118 % of control; in test [2] (3 hours), 110 % of control; in test [2] (6 hours), 116 % of control. The “Suppression of mouse-killing behavior (in words)” value in test [3] (versus imipramine, i.p.) is “as potent as imipramine”.

The ED50 is the dose at which the effect has come halfway, by size or by number of responders.
